Several values for one entry are separate records, joined by “and”; a condition that tells them apart may be missing. Equal entries are not always repeated.
Biological target: T1, MAO-A (Rattus norvegicus, UniProt P21396)
T1 construct: employing crude rat brain mitochondrial suspension; from tissue; host or cells: brain mitochondria of adult Wistar rats
T1 sequence (P21396 1-526): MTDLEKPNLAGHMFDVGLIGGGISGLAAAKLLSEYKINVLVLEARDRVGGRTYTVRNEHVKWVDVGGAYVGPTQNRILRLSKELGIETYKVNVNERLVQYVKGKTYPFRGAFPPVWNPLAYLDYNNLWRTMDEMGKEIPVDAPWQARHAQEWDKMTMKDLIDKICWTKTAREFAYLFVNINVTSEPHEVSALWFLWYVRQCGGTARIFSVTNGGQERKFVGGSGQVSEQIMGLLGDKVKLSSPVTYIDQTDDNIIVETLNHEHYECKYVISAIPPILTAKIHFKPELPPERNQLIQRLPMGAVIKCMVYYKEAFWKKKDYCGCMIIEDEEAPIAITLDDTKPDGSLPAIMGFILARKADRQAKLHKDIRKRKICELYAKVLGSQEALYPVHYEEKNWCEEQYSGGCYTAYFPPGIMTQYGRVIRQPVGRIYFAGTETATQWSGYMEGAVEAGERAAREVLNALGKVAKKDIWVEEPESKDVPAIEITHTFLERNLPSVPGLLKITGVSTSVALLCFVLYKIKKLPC
Assay: In vitro MAO-A inhibition assay (rat brain mitochondria, serotonin substrate)
Assay type: biochemical
Conditions: rat brain mitochondria, serotonin substrate, mean ± SEM, triplicate; read-out: MAO-A In vitro IC50 (µM) ± SEM
Protocol: (§1) Rat brain mitochondria were used as a source of MAO isoforms. All operations were carried out at 4 °C[50]. Male and female adult Wistar rats weighing 200–220 g were decapitated. All brains were rapidly removed and homogenised with a Potter–Elvehjem homogeniser in cold 0.32 M sucrose and 50 mM Tris-HCl, pH 8.2 (10:1, v/w). The homogenate was centrifuged twice at 1000 g for 5 min at 4 °C. The resulting supernatant was centrifuged at 20,000 g for 20 min. The mitochondrial pellet obtained was suspended in 100 mM sodium phosphate buffer, pH 7.4 (4:1, v/w), fractionated in plastic vials to 500 µl samples and stored at −80 °C. Before use, mitochondria were diluted with 100 mM sodium phosphate buffer to give a working solution of 0.80 mg of protein per millilitre.
(§2) The experiments were carried out under all the suitable laboratory conditions. […] An aliquot was made to contain mixture of 55 µl mitochondrial suspension (0.80 mg of protein/ml), 90 µl 50 mM Tris-HCl buffer, pH 8.2 and 30 µl solubilising solution (control or inhibitor solution at five different concentrations). The reaction was initiated by adding 25 µl of serotonin (4 mM, substrate for MAO-A) and 25 µl benzylamine (0.1 M, substrate for MAO-B) for the determination of MAO-A and MAO-B activity, respectively. The mixture was incubated at 37 °C for 30 min and the reaction was stopped by the addition of 50 µl of 1 N HCl. The absorbance associated with the production of 5-hydroxyindolacetic acid was measured at 280 nm for the estimation of MAO-A while for MAO-B estimation, the absorbance was measured at 250 nm due to the formation of benzaldehyde. All the assays were performed in triplicate. Control experiments were carried out without inhibitor and blanks were run without mitochondrial suspension.
(§3) Data are expressed as mean ± standard error mean (SEM) of experiments performed in triplicate.
(§4) 0, 15, 30 and 60 min at 37 °C in Tris-HCl buffer (50 mM, pH 8.2). […] The reactions were further incubated at 37 °C for a further 15 min and the residual enzyme activities were measured and the bar graphs were constructed. All measurements were carried out in triplicate and are expressed as mean ± SEM.
`CC(=NNC(=O)Nc1ncc([N+](=O)[O-])s1)c1ccc(O)cc1` [Compound 7, 1-(1-(4-Hydroxyphenyl)ethylidene)-4-(5-nitrothiazol-2-yl)semicarbazide] gave an IC50 of 5899 ± 9.84 µM.
In the case of `O=C(NN=Cc1ccc(Br)cc1)Nc1ncc([N+](=O)[O-])s1` [Compound 10, 1-(4-Bromobenzylidene)-4-(5-nitrothiazol-2-yl)semicarbazide], the IC50 is reported as 5153 ± 8.82 µM.
For `COc1ccc(OC)c(C=NNC(=O)Nc2ncc([N+](=O)[O-])s2)c1` [Compound 15, 1-(2,5-Dimethoxybenzylidene)-4-(5-nitrothiazol-2-yl)semicarbazide], the IC50 was > 100 µM and 55000 µM.

System: mice
Assay: Neurotoxicity screening (rotarod test)
Assay type: in vivo
Conditions: 30 mg/kg i.p., 0.5 h
Protocol: The neurotoxicity screening was undertaken according to the method followed by the National Institute of Health, using their reported procedures[55]^,[56]. Male albino mice (CF-1 strain or Swiss, 18–25 g) were used as experimental animals. The animals were housed in metabolic cages, and allowed free access to food and water. The test compounds were suspended in 0.5% methylcellulose/water mixture or in polyethylene glycol (PEG 200).
Minimal motor impairment was measured in mice by the rotarod test. The mice were trained to stay on an accelerating rotarod that rotates at six revolutions per minute. The rod diameter was 3.2 cm. Trained animals were given i.p. injection of the selected inhibitors at a dose of 30 mg/kg. Neurotoxicity was indicated by the inability of the animal to maintain equilibrium on the rod for at least 1 min in each of the three trials.
With `CC(=NNC(=O)Nc1ncc([N+](=O)[O-])s1)c1ccc(O)cc1` [Compound 7, 1-(1-(4-Hydroxyphenyl)ethylidene)-4-(5-nitrothiazol-2-yl)semicarbazide] the “Neurotoxicity (animals that exhibit toxicity / animals tested)” value was 0/4.

Same assay, conditions: 30 mg/kg i.p., 1 h
With `CC(=NNC(=O)Nc1ncc([N+](=O)[O-])s1)c1ccc(O)cc1` [Compound 7, 1-(1-(4-Hydroxyphenyl)ethylidene)-4-(5-nitrothiazol-2-yl)semicarbazide] the “Neurotoxicity (animals that exhibit toxicity / animals tested)” value was 0/4.

Same assay, conditions: 30 mg/kg i.p., 2 h
With `CC(=NNC(=O)Nc1ncc([N+](=O)[O-])s1)c1ccc(O)cc1` [Compound 7, 1-(1-(4-Hydroxyphenyl)ethylidene)-4-(5-nitrothiazol-2-yl)semicarbazide] the “Neurotoxicity (animals that exhibit toxicity / animals tested)” value was 0/4.

Same assay, conditions: 30 mg/kg i.p., 4 h
With `CC(=NNC(=O)Nc1ncc([N+](=O)[O-])s1)c1ccc(O)cc1` [Compound 7, 1-(1-(4-Hydroxyphenyl)ethylidene)-4-(5-nitrothiazol-2-yl)semicarbazide] the “Neurotoxicity (animals that exhibit toxicity / animals tested)” value was 0/4.

System: not listed separately
Assay: In vitro DPPH radical scavenging assay
Conditions: test sample 100 µg/ml, 100 µM methanolic DPPH, 30 min, 517 nm
Protocol: Antioxidant activity of the synthesised compounds (10 mg/ml) was evaluated using the radical scavenging capability against the stable free radical, 2,2′-diphenyl-1-picryl hydrazyl (DPPH·). The DPPH· scavenging capability was determined using UV based spectrophotometric assay. About 200 µl of the test sample solution (100 µg/ml) was added to 4 ml of 100 µM methanolic DPPH. […] Ascorbic acid (100 µg/ml) was used as reference. The percentage inhibition of DPPH activity was estimated using the formula: Percent (%) inhibition of DPPH activity = Acontrol-Asample/Acontrol×100 where Acontrol is the absorbance of DPPH· in methanol without an antioxidant and Asample is the absorbance of DPPH· in the presence of an antioxidant.
For `COc1ccc(OC)c(C=NNC(=O)Nc2ncc([N+](=O)[O-])s2)c1` [Compound 15, 1-(2,5-Dimethoxybenzylidene)-4-(5-nitrothiazol-2-yl)semicarbazide], the “% inhibition of DPPH activity” value was 10.58%.

Biological target: T2, rat brain AChE (Rattus norvegicus, UniProt P37136)
T2 construct: the resulting clear supernatants obtained were used as enzyme sources; from tissue; host or cells: rat brain cortex homogenate, 10,000 g supernatant
T2 sequence (P37136 32-614): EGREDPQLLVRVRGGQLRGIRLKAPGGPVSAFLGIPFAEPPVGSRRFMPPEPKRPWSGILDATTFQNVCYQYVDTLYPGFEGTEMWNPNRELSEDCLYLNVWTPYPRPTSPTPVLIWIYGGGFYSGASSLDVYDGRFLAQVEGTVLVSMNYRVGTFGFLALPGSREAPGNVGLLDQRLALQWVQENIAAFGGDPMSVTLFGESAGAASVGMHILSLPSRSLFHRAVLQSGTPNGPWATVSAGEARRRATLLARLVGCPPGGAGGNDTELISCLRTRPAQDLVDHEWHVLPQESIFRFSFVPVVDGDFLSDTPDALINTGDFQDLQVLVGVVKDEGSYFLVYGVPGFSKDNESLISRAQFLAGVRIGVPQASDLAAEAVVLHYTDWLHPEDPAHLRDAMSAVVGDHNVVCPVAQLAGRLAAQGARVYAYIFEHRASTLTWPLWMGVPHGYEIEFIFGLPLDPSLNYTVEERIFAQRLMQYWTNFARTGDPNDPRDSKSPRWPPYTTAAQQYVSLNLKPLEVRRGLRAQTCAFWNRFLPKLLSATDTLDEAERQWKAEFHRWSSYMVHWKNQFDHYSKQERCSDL
Assay: biochemical
Assay type: biochemical
Conditions: rat brain AChE, ACTI substrate, mean ± SEM, triplicate; read-out: AChE In vitro IC50 (µM) ± SEM
Protocol: Rat brain was used as a source of AChE enzyme. Rats were separately decapitated, the brain cortices quickly removed, weighed and homogenised in cold 10 mM Tris-HCl buffer, pH 7.2, containing 160 mM sucrose. The homogenates were centrifuged at 10,000 g for 10 min at 4 °C, and the resulting clear supernatants obtained were used as enzyme sources that were divided into aliquots and stored at −20 °C.
About 30 µl of enzyme sample (AChE) was added to 60 µl of 20 mM sodium phosphate buffer (pH 7.4) and were incubated in the presence of 30 µl of 10 mM DTNB solution with different concentrations of the test compounds. The enzyme reaction was initiated by the addition of 30 µl of 0.8 mM ACTI. The mixtures were incubated for 15 min at 25 °C. […] Control experiments were carried out without inhibitor, and blanks were run without AChE enzyme. All the assays were performed in triplicate. IC50 values were determined using the GraphPad Prism 5.0 (San Diego, CA) and the results were expressed as mean ± SEM.
as §4, with “25” for “37”, “sodium phosphate” for “Tris-HCl”, “(20” for “(50”, “7.4) and DTNB solution (10 mM).” for “8.2).”, “reaction was” for “reactions were”
For `CC(=NNC(=O)Nc1ncc([N+](=O)[O-])s1)c1ccc(O)cc1` [Compound 7, 1-(1-(4-Hydroxyphenyl)ethylidene)-4-(5-nitrothiazol-2-yl)semicarbazide], the IC50 was 12.7 ± 0.62 µM.
`O=C(NN=Cc1ccc(Br)cc1)Nc1ncc([N+](=O)[O-])s1` [Compound 10, 1-(4-Bromobenzylidene)-4-(5-nitrothiazol-2-yl)semicarbazide] gave an IC50 of 96.4 ± 2.81 µM.
`COc1ccc(OC)c(C=NNC(=O)Nc2ncc([N+](=O)[O-])s2)c1` [Compound 15, 1-(2,5-Dimethoxybenzylidene)-4-(5-nitrothiazol-2-yl)semicarbazide] showed an IC50 of 872 ± 4.38 µM.

Same assay, conditions: ratio of IC50 values
For `CC(=NNC(=O)Nc1ncc([N+](=O)[O-])s1)c1ccc(O)cc1` [Compound 7, 1-(1-(4-Hydroxyphenyl)ethylidene)-4-(5-nitrothiazol-2-yl)semicarbazide], the “AChE: fold greater potency relative to compound 11” value was ~46 fold.

System: not listed separately
Assay: physchem
Conditions: octanol/water
Compound `CC(=NNC(=O)Nc1ncc([N+](=O)[O-])s1)c1ccc(O)cc1` [Compound 7, 1-(1-(4-Hydroxyphenyl)ethylidene)-4-(5-nitrothiazol-2-yl)semicarbazide] has a logP of 1.2.
Work on `O=C(NN=Cc1ccc(Br)cc1)Nc1ncc([N+](=O)[O-])s1` [Compound 10, 1-(4-Bromobenzylidene)-4-(5-nitrothiazol-2-yl)semicarbazide] yielded a logP of 2.5.

Biological target: T3, MAO-B (Rattus norvegicus, UniProt P19643)
T3 construct: employing crude rat brain mitochondrial suspension; from tissue; host or cells: brain mitochondria of adult Wistar rats
T3 sequence (P19643 1-520): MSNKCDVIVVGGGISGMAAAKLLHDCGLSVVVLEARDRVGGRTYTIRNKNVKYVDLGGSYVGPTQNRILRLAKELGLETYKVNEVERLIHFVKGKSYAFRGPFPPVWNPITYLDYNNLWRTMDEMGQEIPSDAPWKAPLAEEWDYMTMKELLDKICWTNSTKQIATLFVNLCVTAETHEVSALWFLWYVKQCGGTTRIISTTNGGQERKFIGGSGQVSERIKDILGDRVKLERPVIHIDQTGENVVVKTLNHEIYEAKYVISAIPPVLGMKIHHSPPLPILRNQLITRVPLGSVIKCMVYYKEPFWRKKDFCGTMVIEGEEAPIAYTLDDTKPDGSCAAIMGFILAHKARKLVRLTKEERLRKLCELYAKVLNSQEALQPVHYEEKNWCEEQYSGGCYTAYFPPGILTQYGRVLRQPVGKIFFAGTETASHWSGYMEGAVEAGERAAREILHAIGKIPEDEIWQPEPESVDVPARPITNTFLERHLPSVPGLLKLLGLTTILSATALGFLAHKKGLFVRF
Assay: biochemical
Conditions: not given
Protocol: as §1, §2, §3, §4
Compound `CC(=NNC(=O)Nc1ncc([N+](=O)[O-])s1)c1ccc(O)cc1` [Compound 7, 1-(1-(4-Hydroxyphenyl)ethylidene)-4-(5-nitrothiazol-2-yl)semicarbazide] has an IC50 of 14.75 ± 0.018 µM.
For `O=C(NN=Cc1ccc(Br)cc1)Nc1ncc([N+](=O)[O-])s1` [Compound 10, 1-(4-Bromobenzylidene)-4-(5-nitrothiazol-2-yl)semicarbazide], the IC50 was 5.451 ± 0.009 µM.
Work on `COc1ccc(OC)c(C=NNC(=O)Nc2ncc([N+](=O)[O-])s2)c1` [Compound 15, 1-(2,5-Dimethoxybenzylidene)-4-(5-nitrothiazol-2-yl)semicarbazide] yielded an IC50 of 11.1 ± 0.19 µM.

Same assay, conditions: ratio of IC50 values
In the case of `CC(=NNC(=O)Nc1ncc([N+](=O)[O-])s1)c1ccc(O)cc1` [Compound 7, 1-(1-(4-Hydroxyphenyl)ethylidene)-4-(5-nitrothiazol-2-yl)semicarbazide], the “MAO-B: fold greater potency relative to compound 11” value is reported as ~16.37 fold.

Same assay, conditions: ratio of experimental IC50(MAO-A)/IC50(MAO-B)
With `CC(=NNC(=O)Nc1ncc([N+](=O)[O-])s1)c1ccc(O)cc1` [Compound 7, 1-(1-(4-Hydroxyphenyl)ethylidene)-4-(5-nitrothiazol-2-yl)semicarbazide] the “SI (selectivity index for MAO-B)” value was 399.93.
For `O=C(NN=Cc1ccc(Br)cc1)Nc1ncc([N+](=O)[O-])s1` [Compound 10, 1-(4-Bromobenzylidene)-4-(5-nitrothiazol-2-yl)semicarbazide], the “SI (selectivity index for MAO-B)” value was 945.33.
In the case of `COc1ccc(OC)c(C=NNC(=O)Nc2ncc([N+](=O)[O-])s2)c1` [Compound 15, 1-(2,5-Dimethoxybenzylidene)-4-(5-nitrothiazol-2-yl)semicarbazide], the “SI (selectivity index for MAO-B)” value is reported as 4945.91.

— article PMC6009888, “Design, synthesis, and pharmacological evaluation of 2-amino-5-nitrothiazole derived semicarbazones as dual inhibitors of monoamine oxidase and cholinesterase: effect of the size of aryl binding site” (Journal of Enzyme Inhibition and Medicinal Chemistry, 2017)
